± gives the expanded uncertainty stated by the source.
Assay: isobaric coefficient of expansion
Settings: 318.15 K; 30000 kPa; Liquid; Microcalorimeter

| Compound | isobaric coefficient of expansion |
| --- | --- |
| CCn1cc[n+](C)c1.F[B-](F)(F)F [1-ethyl-3-methylimidazolium tetrafluoroborate] | 0.000556 ± 1.4e-05 1/K |
| CCCCCC[n+]1ccn(C)c1.O=S(=O)([N-]S(=O)(=O)C(F)(F)F)C(F)(F)F | 0.000606 ± 1.5e-05 1/K |
| CCCCCCCC[n+]1ccn(C)c1.F[B-](F)(F)F [1-methyl-3-octylimidazolium tetrafluoroborate] | 0.00056 ± 1.1e-05 1/K |
| CCCC[n+]1cccc(C)c1.F[B-](F)(F)F [1-butyl-3-methylpyridinium tetrafluoroborate] | 0.000554 ± 1.4e-05 1/K |
| CCCCCCn1cc[n+](C)c1.F[B-](F)(F)F [1-hexyl-3-methylimidazolium tetrafluoroborate] | 0.00056 ± 1.4e-05 1/K |
| CCn1cc[n+](C)c1.O=S(=O)([N-]S(=O)(=O)C(F)(F)F)C(F)(F)F | 0.000607 ± 1.5e-05 1/K |

Same assay, conditions: 318.15 K; 35000 kPa; Liquid; Microcalorimeter

| Compound | isobaric coefficient of expansion |
| --- | --- |
| CCn1cc[n+](C)c1.F[B-](F)(F)F [1-ethyl-3-methylimidazolium tetrafluoroborate] | 0.00055 ± 1.3e-05 1/K |
| CCCCCC[n+]1ccn(C)c1.O=S(=O)([N-]S(=O)(=O)C(F)(F)F)C(F)(F)F | 0.000597 ± 1.5e-05 1/K |
| CCCCCCCC[n+]1ccn(C)c1.F[B-](F)(F)F [1-methyl-3-octylimidazolium tetrafluoroborate] | 0.000554 ± 1.1e-05 1/K |
| CCCC[n+]1cccc(C)c1.F[B-](F)(F)F [1-butyl-3-methylpyridinium tetrafluoroborate] | 0.000551 ± 1.3e-05 1/K |
| CCCCCCn1cc[n+](C)c1.F[B-](F)(F)F [1-hexyl-3-methylimidazolium tetrafluoroborate] | 0.000554 ± 1.4e-05 1/K |
| CCn1cc[n+](C)c1.O=S(=O)([N-]S(=O)(=O)C(F)(F)F)C(F)(F)F | 0.000599 ± 1.5e-05 1/K |

Same assay, conditions: 318.15 K; 40000 kPa; Liquid; Microcalorimeter

| Compound | isobaric coefficient of expansion |
| --- | --- |
| CCn1cc[n+](C)c1.F[B-](F)(F)F [1-ethyl-3-methylimidazolium tetrafluoroborate] | 0.000544 ± 1.3e-05 1/K |
| CCCCCC[n+]1ccn(C)c1.O=S(=O)([N-]S(=O)(=O)C(F)(F)F)C(F)(F)F | 0.000588 ± 1.4e-05 1/K |
| CCCCCCCC[n+]1ccn(C)c1.F[B-](F)(F)F [1-methyl-3-octylimidazolium tetrafluoroborate] | 0.000545 ± 1.1e-05 1/K |
| CCCC[n+]1cccc(C)c1.F[B-](F)(F)F [1-butyl-3-methylpyridinium tetrafluoroborate] | 0.000545 ± 1.3e-05 1/K |
| CCCCCCn1cc[n+](C)c1.F[B-](F)(F)F [1-hexyl-3-methylimidazolium tetrafluoroborate] | 0.000545 ± 1.3e-05 1/K |
| CCn1cc[n+](C)c1.O=S(=O)([N-]S(=O)(=O)C(F)(F)F)C(F)(F)F | 0.00059 ± 1.4e-05 1/K |

Same assay, conditions: 318.15 K; 45000 kPa; Liquid; Microcalorimeter

| Compound | isobaric coefficient of expansion |
| --- | --- |
| CCn1cc[n+](C)c1.F[B-](F)(F)F [1-ethyl-3-methylimidazolium tetrafluoroborate] | 0.000537 ± 1.3e-05 1/K |
| CCCCCC[n+]1ccn(C)c1.O=S(=O)([N-]S(=O)(=O)C(F)(F)F)C(F)(F)F | 0.000578 ± 1.4e-05 1/K |
| CCCCCCCC[n+]1ccn(C)c1.F[B-](F)(F)F [1-methyl-3-octylimidazolium tetrafluoroborate] | 0.000537 ± 1.1e-05 1/K |
| CCCC[n+]1cccc(C)c1.F[B-](F)(F)F [1-butyl-3-methylpyridinium tetrafluoroborate] | 0.000539 ± 1.3e-05 1/K |
| CCCCCCn1cc[n+](C)c1.F[B-](F)(F)F [1-hexyl-3-methylimidazolium tetrafluoroborate] | 0.000537 ± 1.3e-05 1/K |
| CCn1cc[n+](C)c1.O=S(=O)([N-]S(=O)(=O)C(F)(F)F)C(F)(F)F | 0.000582 ± 1.4e-05 1/K |

Same assay, conditions: 318.15 K; 50000 kPa; Liquid; Microcalorimeter

| Compound | isobaric coefficient of expansion |
| --- | --- |
| CCn1cc[n+](C)c1.F[B-](F)(F)F [1-ethyl-3-methylimidazolium tetrafluoroborate] | 0.000532 ± 1.3e-05 1/K |
| CCCCCC[n+]1ccn(C)c1.O=S(=O)([N-]S(=O)(=O)C(F)(F)F)C(F)(F)F | 0.000571 ± 1.4e-05 1/K |
| CCCCCCCC[n+]1ccn(C)c1.F[B-](F)(F)F [1-methyl-3-octylimidazolium tetrafluoroborate] | 0.000532 ± 1.1e-05 1/K |
| CCCC[n+]1cccc(C)c1.F[B-](F)(F)F [1-butyl-3-methylpyridinium tetrafluoroborate] | 0.000535 ± 1.3e-05 1/K |
| CCCCCCn1cc[n+](C)c1.F[B-](F)(F)F [1-hexyl-3-methylimidazolium tetrafluoroborate] | 0.000532 ± 1.3e-05 1/K |
| CCn1cc[n+](C)c1.O=S(=O)([N-]S(=O)(=O)C(F)(F)F)C(F)(F)F | 0.000576 ± 1.4e-05 1/K |
